Columns and labels:
[1] = system: human influenza (influenza A/victoria H3N2) and highly pathogenic avian influenza (H7N2); type: cell-based, influenza virus
[2] = safety monitoring of human subjects undergoing intermittent gNO inhalation; type: in vivo
From the text: In some embodiments, the methods disclosed herein are effected while monitoring various parameters relevant for maintaining the desired dosage and regimen, relevant to the safety of the procedure and relevant for efficacy of the treatment. Exemplary such parameters are those obtainable on-site in real-time, such as methemoglobin level, end-tidal CO2 level, and oxygenation, and parameters which are obtainable off-site in the laboratory, such as blood nitrite level, urine nitrite level, and inflammatory markers' level. […] Embodiments of the present invention therefore relate to methods of administering gaseous nitric oxide to human subjects in need thereof, while these parameters remain substantially unchanged.
As methemoglobin levels can be measured using noninvasive measures, the parameter of percent saturation at the periphery of methemoglobin (SpMet) is used to monitor the stability, safety and effectiveness of the method presented herein.

[3] = system: human respiratory syncytial virus (rgRSV30); type: cell-based
[4] = human subjects undergoing the disclosed regimen

Compound: [N]=O [gNO, nitric oxide]
- infectivity of influenza [1]: reduced their infectivity
- change in inflammatory markers [2, 4]: no substantial change
- change in methemoglobin level [2, 4]: no substantial change
- change in serum nitrite level [2, 4]: no substantial change
- SpMet level (percent saturation at the periphery of methemoglobin) ([2]; human subjects undergoing the method, during and following administration): ≤ 1%
- infectivity of RSV [3]: reduced their infectivity
